pIC50: −log10 of the molar value. In the oligonucleotide strings, read from the 5' end, every base follows the letter of its sugar. An asterisk marks phosphorothioate; unmarked linkages are phosphodiester. Other units and linkages are bracketed, terminal groups are in braces. A string of capitals states the bases alone. [Ab] = 3'-terminal abasic nucleotide; d = 2'-deoxy (DNA); m = 2'-O-methyl; r = 2'-OH (RNA); {P} = phosphate
The substances below were run on PCSK9 mRNA (assay: In vitro screening of modified dsRNAs targeted to PCSK9 (Table 2b; cell type not given)). Settings: 30 nM siRNA.
Type: cell-based
Method: For transfection with siRNA, HuH7, HepG2, or HeLa cells were seeded at a density of 2.0×10^4 cells/well in 96-well plates and transfected directly. Transfection of siRNA (30 nM for single dose screen) was carried out with lipofectamine 2000 (Invitrogen GmbH, Karlsruhe, Germany, cat. No. 11668-019) as described by the manufacturer.
24 hours after transfection HuH7 and HepG2 cells were lysed and PCSK9 mRNA levels were quantified with the Quantigene Explore Kit (Genosprectra, Dumbarton Circle Fremont, USA, cat. No. QG-000-02) according to the protocol. PCSK9 mRNA levels were normalized to GAP-DH mRNA. For each siRNA eight individual datapoints were collected. siRNA duplexes unrelated to PCSK9 gene were used as control. The activity of a given PCSK9 specific siRNA duplex was expressed as percent PCSK9 mRNA concentration in treated cells relative to PCSK9 mRNA concentration in cells treated with the control siRNA duplex.
Tables 1b and 2b (and FIG. 6A) summarize the results and provide examples of in vitro screens in different cell lines at different doses. Silencing of PCSK9 transcript was expressed as percentage of remaining transcript at a given dose.

Substance | Remaining mRNA in % of controls at siRNA conc. of 30 nM [%]
AD-12038: modified dsRNA, SEQ ID NO:1311/1312 (chain 1 rGmCmCmUrGrGrArGmUmUmUrAmUmUmCrGrGrArAdT*dT; chain 2 mUrUrCrCrGrArArUrArArArCrUrCrCrArGrGrCdT*dT) | 13
AD-12039: modified dsRNA, SEQ ID NO:1313/1314 (chain 1 rGmCmCmUrGrGrArGmUmUmUrAmUmUmCrGrGrArAdT*dT; chain 2 rUmUrCrCrGrArArUrArArArCrUrCrCrArGrGrCdT*dT) | 29
AD-12040: modified dsRNA, SEQ ID NO:1315/1316 (chain 1 rGmCmCmUrGrGrArGmUmUmUrAmUmUmCrGrGrArAdT*dT; chain 2 rUrUmCrCrGrArArUrArArArCrUrCrCrArGrGrCdT*dT) | 10
AD-12041: modified dsRNA, SEQ ID NO:1317/1318 (chain 1 rGmCmCmUrGrGrArGmUmUmUrAmUmUmCrGrGrArAdT*dT; chain 2 rUrUrCmCrGrArArUrArArArCrUrCrCrArGrGrCdT*dT) | 11
AD-12042: modified dsRNA, SEQ ID NO:1319/1320 (chain 1 rGrCrCrUrGrGrArGrUrUrUrArUrUrCrGrGrArAdT*dT; chain 2 mUrUrCrCrGrArArUrArArArCrUrCrCrArGrGrCdT*dT) | 12
AD-12043: modified dsRNA, SEQ ID NO:1321/1322 (chain 1 rGrCrCrUrGrGrArGrUrUrUrArUrUrCrGrGrArAdT*dT; chain 2 rUmUrCrCrGrArArUrArArArCrUrCrCrArGrGrCdT*dT) | 13
AD-12044: modified dsRNA, SEQ ID NO:1323/1324 (chain 1 rGrCrCrUrGrGrArGrUrUrUrArUrUrCrGrGrArAdT*dT; chain 2 rUrUmCrCrGrArArUrArArArCrUrCrCrArGrGrCdT*dT) | 7
AD-12045: modified dsRNA, SEQ ID NO:1325/1326 (chain 1 rGrCrCrUrGrGrArGrUrUrUrArUrUrCrGrGrArAdT*dT; chain 2 rUrUrCmCrGrArArUrArArArCrUrCrCrArGrGrCdT*dT) | 8
AD-12046: modified dsRNA, SEQ ID NO:1327/1328 (chain 1 rGmCmCmUrGrGrArGmUmUmUrAmUmUmCrGrGrArA; chain 2 rUrUrCrCrGrArArUrArArArCrUrCrCrArGrGrC*mC*mU) | 13
AD-12047: modified dsRNA, SEQ ID NO:1329/1330 (chain 1 rGmCmCmUrGrGrArGmUmUmUrAmUmUmCrGrGrArArA; chain 2 rUrUrUrCrCrGrArArUrArArArCrUrCrCrArGrGrC*mC*mU) | 17
AD-12048: modified dsRNA, SEQ ID NO:1331/1332 (chain 1 rGmCmCmUrGrGrArGmUmUmUrAmUmUmCrGrGrArArArA; chain 2 rUrUrUrUrCrCrGrArArUrArArArCrUrCrCrArGrGrC*mC*mU) | 43
AD-12049: modified dsRNA, SEQ ID NO:1333/1334 (chain 1 rGmCmCmUrGrGrArGmUmUmUrAmUmUmCrGrGrArArArArG; chain 2 rCrUrUrUrUrCrCrGrArArUrArArArCrUrCrCrArGrGrC*mC*mU) | 34
AD-12050: modified dsRNA, SEQ ID NO:1335/1336 (chain 1 rGmCmCmUrGrGrArGmUmUmUrAmUmUmCrGrGrArAdTdT[Ab]; chain 2 rUrUrCrCrGrArArUrArArArCrUrCrCrArGrGrCdTdT[Ab]) | 16
AD-12051: modified dsRNA, SEQ ID NO:1337/1338 (chain 1 rGmCmCmUrGrGrArGmUmUmUrAmUmUmCrGrGrArArAdTdT[Ab]; chain 2 rUrUrUrCrCrGrArAmUrArArArCrUrCrCrArGrGrCdTdT[Ab]) | 31
AD-12052: modified dsRNA, SEQ ID NO:1339/1340 (chain 1 rGmCmCmUrGrGrArGmUmUmUrAmUmUmCrGrGrArArArAdTdT[Ab]; chain 2 rUrUrUrUrCrCrGrArArUrArArArCrUrCrCrArGrGrCdTdT[Ab]) | 81
AD-12053: modified dsRNA, SEQ ID NO:1341/1342 (chain 1 rGmCmCmUrGrGrArGmUmUmUrAmUmUmCrGrGrArArArArGdTdT[Ab]; chain 2 rCrUrUrUrUrCrCrGrArArUrArArArCrUrCrCrArGrGrCdTdT[Ab]) | 46
AD-12054: modified dsRNA, SEQ ID NO:1343/1344 (chain 1 rGrCrCrUrGrGrArGrUrUrUrArUrUrCrGrGrArAdT*dT; chain 2 rUrUrCrCrGrArArUrArArArCrUrCrCrArGrGrC*mC*mU) | 8
AD-12055: modified dsRNA, SEQ ID NO:1345/1346 (chain 1 rGmCmCmUrGrGrArGmUmUmUrAmUmUmCrGrGrArAdT*dT; chain 2 rUrUrCrCrGrArArUrArArArCrUrCrCrArGrGrC*mC*mU) | 13
AD-12056: modified dsRNA, SEQ ID NO:1347/1348 (chain 1 rGmCrCmUrGmGrAmGrUmUrUmArUmUrCmGrGmArA; chain 2 rUrUrCrCrGrArArUrArArArCrUrCrCrArGrGrCdTdT[Ab]) | 11
AD-12057: modified dsRNA, SEQ ID NO:1349/1350 (chain 1 rGmCrCmUrGmGrAmGrUmUrUmArUmUrCmGrGmArA; chain 2 rUrUrCrCrGrArArUrArArArCrUrCrCrArGrGrCdT*dT) | 8

Same assay, conditions: data not shown; test system not given

Substance | pIC50
AD-3511: a derivative of AD-10792; sense SEQ ID NO: 1521, antisense SEQ ID NO: 1522 (sense rGmCmCmUrGrGrArGmUmUmUrAmUmUmCrGrGrArAdT*dT; antisense {P}-mUrUrCrCrGrArAmUrArArArCrUrCmCrArGrGrCdT*dT; further chemistry not fully specified) | 9.70 to 10.15

What follows are substances tested on PCSK9 mRNA (assay: PCSK9 siRNA screening in HepG2 cells (lipofectamine 2000 transfection, PCSK9 mRNA by Quantigene, normalized to GAP-DH)). Settings: 3 nM siRNA.
Type: cell-based, human
Procedure, shortened: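 HepG2 cells, grown in MEM with 10% fetal calf serum, antibiotics, non-essential amino acids and sodium pyruvate at 37° C. and 5% CO2, were plated at 2.0×10^4 cells/well in 96-well plates and transfected directly with siRNA using lipofectamine 2000. After 24 hours, cells were lysed and PCSK9 mRNA was measured by Quantigene and normalized to GAP-DH mRNA.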

Substance | Mean percent remaining mRNA transcript at siRNA concentration/in cell type 3 nM/HepG2 [%]
AD-9752: PCSK9 siRNA (sense mUrGrArArGrAmUrAmUmUmUrAmUmUmCmUrGrGrGdT*dT; antisense rCrCmCrArGrArAmUrArArAmUrArUrCrUrUmCrAdT*dT) | 33
AD-9760: PCSK9 siRNA (sense mCmUmCmUrGmUmUrGmCmCmUmUmUmUmUrAmCrArGdT*dT; antisense rCrUrGmUrArArArArArGrGmCrArAmCrArGrArGdT*dT) | 27
AD-9765: PCSK9 siRNA (sense rGmUrGmCmUrGrArGrGmCmCrAmCrGrArGrGmUmCdT*dT; antisense rGrArCrCrUrCrGrUrGrGrCrCrUmCrArGmCrArCdT*dT) | 74

Same assay, conditions: 30 nM siRNA

Substance | Mean percent remaining mRNA transcript at siRNA concentration/in cell type 30 nM/HepG2 [%]
AD-9752: PCSK9 siRNA (sense mUrGrArArGrAmUrAmUmUmUrAmUmUmCmUrGrGrGdT*dT; antisense rCrCmCrArGrArAmUrArArAmUrArUrCrUrUmCrAdT*dT) | 28
AD-9753: PCSK9 siRNA (sense rArGrArGrAmCmUrGrAmUmCmCrAmCmUmUmCmUmCdT*dT; antisense rGrArGrArArGrUrGrGrArUmCrArGrUrCrUrCrUdT*dT) | 127
AD-9754: PCSK9 siRNA (sense mUmUmCmUmCmUrGmCmCrArArArGrAmUrGmUmCrAdT*dT; antisense rUrGrAmCrArUrCrUrUrUrGrGmCrArGrArGrArAdT*dT) | 89
AD-9756: PCSK9 siRNA (sense rGrGrGmCrArGrGrGmUmCrAmUrGrGmUmCrAmCmCdT*dT; antisense rGrGrUrGrArCmCrArUrGrArCrCrCrUrGrCrCrCdT*dT) | 63
AD-9757: PCSK9 siRNA (sense mCmUmCmUrGmCmCrArArArGrAmUrGmUmCrAmUmCdT*dT; antisense rGrArUrGrAmCrArUrCrUrUrUrGrGmCrArGrArGdT*dT) | 78
AD-9758: PCSK9 siRNA (sense mCrArAmCmUmUmUrGrGmCmCrGmCmUrGmUrGmUrGdT*dT; antisense mCrAmCrAmCrArGrCrGrGrCmCrArArArGrUrUrGdT*dT) | 96
AD-9759: PCSK9 siRNA (sense mUrGrGmUmCrAmCmCrGmCmUrGmCmCrGrGmCrArAdT*dT; antisense rUrUrGrCrCrGrGmCrArGrCrGrGrUrGrArCmCrAdT*dT) | 111
AD-9760: PCSK9 siRNA (sense mCmUmCmUrGmUmUrGmCmCmUmUmUmUmUrAmCrArGdT*dT; antisense rCrUrGmUrArArArArArGrGmCrArAmCrArGrArGdT*dT) | 14
AD-9763: PCSK9 siRNA (sense rGrArGrGrGmCrArGrGrGmUmCrAmUrGrGmUmCrAdT*dT; antisense rUrGrArCmCrArUrGrArCrCrCrUrGrCrCrCrUrCdT*dT) | 79
AD-9764: PCSK9 siRNA (sense mCmUrGrGrArGmUmUmUrAmUmUmCrGrGrArArArAdT*dT; antisense rUrUrUrUrCrCrGrArAmUrArArArCrUrCmCrArGdT*dT) | 112
AD-9765: PCSK9 siRNA (sense rGmUrGmCmUrGrArGrGmCmCrAmCrGrArGrGmUmCdT*dT; antisense rGrArCrCrUrCrGrUrGrGrCrCrUmCrArGmCrArCdT*dT) | 82

From patent US20120016009A1, “Optimized Methods For Delivery Of DSRNA Targeting The PCSK9 Gene” (priority 2008, published 2012)
